Columns and labels:
[1] = target: Protein kinase C theta type (Homo sapiens) (UniProt Q04759); details: Compound concentration 1000.0 nM
[2] = target: MAP kinase-activated protein kinase 5 (Homo sapiens) (UniProt Q8IW41); details: Compound concentration 1000.0 nM
[3] = target: Activin receptor type-1 (Homo sapiens) (UniProt Q04771); details: Compound concentration 1000.0 nM
[4] = target: Myosin light chain kinase family member 4 (Homo sapiens) (UniProt Q86YV6); details: Compound concentration 1000.0 nM
Myosin light chain kinase family member 4 (Homo sapiens), sequence (Q86YV6 whole entry): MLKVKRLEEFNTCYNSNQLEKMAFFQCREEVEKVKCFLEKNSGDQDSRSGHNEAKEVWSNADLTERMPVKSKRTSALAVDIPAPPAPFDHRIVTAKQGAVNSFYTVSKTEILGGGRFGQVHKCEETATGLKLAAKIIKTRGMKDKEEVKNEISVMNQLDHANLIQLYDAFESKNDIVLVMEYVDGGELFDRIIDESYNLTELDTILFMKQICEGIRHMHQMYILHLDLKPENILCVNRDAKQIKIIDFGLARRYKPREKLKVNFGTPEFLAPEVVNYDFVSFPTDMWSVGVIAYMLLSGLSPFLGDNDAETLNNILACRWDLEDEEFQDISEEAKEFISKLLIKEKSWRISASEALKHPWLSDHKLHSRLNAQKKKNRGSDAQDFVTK

[5] = target: Sigma non-opioid intracellular receptor 1 (Homo sapiens, UniProt Q99720); details: Compound concentration 10.0 uM
Sigma non-opioid intracellular receptor 1, sequence (Q99720 whole entry): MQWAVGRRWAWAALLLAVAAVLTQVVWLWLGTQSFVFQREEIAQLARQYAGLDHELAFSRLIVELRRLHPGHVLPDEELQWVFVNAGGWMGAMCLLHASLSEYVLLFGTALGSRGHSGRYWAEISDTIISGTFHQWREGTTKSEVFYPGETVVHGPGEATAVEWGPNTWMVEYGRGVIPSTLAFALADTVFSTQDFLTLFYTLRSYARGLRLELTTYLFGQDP

[6] = target: Inhibitor of nuclear factor kappa-B kinase subunit epsilon (Homo sapiens) (UniProt Q14164); details: Compound concentration 1000.0 nM
[7] = target: Cyclin-dependent kinase 5 (Homo sapiens) (UniProt Q00535); details: Compound concentration 1000.0 nM
[8] = test system: Proto-oncogene tyrosine-protein kinase receptor Ret (Homo sapiens), P07949 [M918T]; details: Compound concentration 1000.0 nM
[9] = target: Cyclin-G-associated kinase (Homo sapiens) (UniProt O14976); details: Compound concentration 1000.0 nM
[10] = target: Serine/threonine-protein kinase D2 (Homo sapiens) (UniProt Q9BZL6); details: Compound concentration 1000.0 nM
Serine/threonine-protein kinase D2 (Homo sapiens), sequence (Q9BZL6 whole entry): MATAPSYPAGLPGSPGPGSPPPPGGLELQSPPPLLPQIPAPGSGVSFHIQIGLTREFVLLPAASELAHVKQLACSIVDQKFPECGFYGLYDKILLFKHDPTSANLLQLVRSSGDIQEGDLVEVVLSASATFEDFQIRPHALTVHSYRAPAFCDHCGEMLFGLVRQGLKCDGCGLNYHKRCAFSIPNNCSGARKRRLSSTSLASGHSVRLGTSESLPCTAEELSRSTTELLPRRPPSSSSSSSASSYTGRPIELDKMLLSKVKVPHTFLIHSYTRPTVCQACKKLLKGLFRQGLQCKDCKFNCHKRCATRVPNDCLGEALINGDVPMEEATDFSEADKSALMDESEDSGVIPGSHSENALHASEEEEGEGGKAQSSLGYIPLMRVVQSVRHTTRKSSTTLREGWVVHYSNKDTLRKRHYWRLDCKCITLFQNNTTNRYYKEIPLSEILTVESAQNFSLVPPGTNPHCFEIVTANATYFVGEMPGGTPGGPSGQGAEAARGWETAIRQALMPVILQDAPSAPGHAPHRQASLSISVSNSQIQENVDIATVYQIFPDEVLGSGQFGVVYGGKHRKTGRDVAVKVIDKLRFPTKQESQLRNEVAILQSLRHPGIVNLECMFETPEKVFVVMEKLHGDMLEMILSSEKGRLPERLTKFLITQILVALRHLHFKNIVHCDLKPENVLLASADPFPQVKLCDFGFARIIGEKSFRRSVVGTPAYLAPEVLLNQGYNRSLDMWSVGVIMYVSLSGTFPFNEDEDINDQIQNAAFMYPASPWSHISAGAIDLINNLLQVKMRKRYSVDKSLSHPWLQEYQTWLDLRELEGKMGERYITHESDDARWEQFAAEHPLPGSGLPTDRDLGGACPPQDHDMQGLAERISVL

[11] = target: Ribosomal protein S6 kinase alpha-3 (Homo sapiens) (UniProt P51812); details: Compound concentration 1000.0 nM
[12] = target: Beta-3 adrenergic receptor (Homo sapiens) (UniProt P13945); details: Compound concentration 10.0 uM
[13] = target: Serine/threonine-protein kinase pim-2 (Homo sapiens) (UniProt Q9P1W9); details: Compound concentration 1000.0 nM
Serine/threonine-protein kinase pim-2 (Homo sapiens), sequence (Q9P1W9 whole entry, looked up): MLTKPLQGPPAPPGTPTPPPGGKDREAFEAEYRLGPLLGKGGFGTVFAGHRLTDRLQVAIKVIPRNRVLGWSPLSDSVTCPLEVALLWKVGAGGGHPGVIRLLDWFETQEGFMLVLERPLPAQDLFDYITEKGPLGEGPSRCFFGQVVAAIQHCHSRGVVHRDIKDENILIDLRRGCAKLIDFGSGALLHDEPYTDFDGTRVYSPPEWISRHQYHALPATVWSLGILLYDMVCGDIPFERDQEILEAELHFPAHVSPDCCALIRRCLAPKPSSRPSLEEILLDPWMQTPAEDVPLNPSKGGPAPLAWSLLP

[14] = target: Ephrin type-A receptor 7 (Homo sapiens) (UniProt Q15375); details: Compound concentration 1000.0 nM
[15] = target: Epithelial discoidin domain-containing receptor 1 (Homo sapiens) (UniProt Q08345); details: Compound concentration 1000.0 nM
[16] = target: Cyclin-dependent kinase 16 (Homo sapiens) (UniProt Q00536); details: Compound concentration 1000.0 nM
[17] = target: Phosphatidylinositol 4,5-bisphosphate 3-kinase catalytic subunit beta isoform (Homo sapiens) (UniProt P42338); details: Compound concentration 1000.0 nM
Phosphatidylinositol 4,5-bisphosphate 3-kinase catalytic subunit beta isoform (Homo sapiens), sequence (P42338 whole entry, looked up, canonical isoform): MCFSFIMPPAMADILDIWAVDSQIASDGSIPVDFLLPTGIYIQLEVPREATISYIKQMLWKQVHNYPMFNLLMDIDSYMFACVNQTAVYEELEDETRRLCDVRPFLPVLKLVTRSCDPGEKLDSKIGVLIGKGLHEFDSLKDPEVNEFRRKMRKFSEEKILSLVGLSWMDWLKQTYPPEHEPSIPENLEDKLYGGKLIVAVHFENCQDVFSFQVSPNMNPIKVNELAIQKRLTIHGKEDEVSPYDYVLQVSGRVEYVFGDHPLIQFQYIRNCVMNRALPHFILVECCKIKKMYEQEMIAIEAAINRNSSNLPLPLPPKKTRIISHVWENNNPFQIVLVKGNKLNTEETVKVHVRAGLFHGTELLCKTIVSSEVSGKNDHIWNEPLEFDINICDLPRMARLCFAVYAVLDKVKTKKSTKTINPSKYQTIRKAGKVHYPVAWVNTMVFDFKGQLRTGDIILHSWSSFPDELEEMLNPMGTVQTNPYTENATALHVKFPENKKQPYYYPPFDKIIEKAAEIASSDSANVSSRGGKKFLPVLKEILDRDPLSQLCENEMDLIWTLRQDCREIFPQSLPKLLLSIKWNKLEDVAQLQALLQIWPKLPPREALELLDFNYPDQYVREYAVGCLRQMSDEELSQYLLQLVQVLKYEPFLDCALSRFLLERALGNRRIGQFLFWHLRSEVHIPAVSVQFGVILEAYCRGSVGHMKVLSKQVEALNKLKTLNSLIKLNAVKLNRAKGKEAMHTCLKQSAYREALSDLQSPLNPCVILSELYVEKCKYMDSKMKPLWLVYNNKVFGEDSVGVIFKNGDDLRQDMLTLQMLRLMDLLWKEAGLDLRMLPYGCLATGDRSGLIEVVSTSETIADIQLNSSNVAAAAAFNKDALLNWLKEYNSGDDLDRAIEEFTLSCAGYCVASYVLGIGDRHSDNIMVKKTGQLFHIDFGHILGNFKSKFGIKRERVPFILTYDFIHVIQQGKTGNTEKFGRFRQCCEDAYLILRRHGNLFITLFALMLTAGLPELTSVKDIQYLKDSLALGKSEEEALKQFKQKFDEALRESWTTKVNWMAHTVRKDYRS

[18] = test system: Receptor-type tyrosine-protein kinase FLT3 (Homo sapiens), P36888 [D835V]; details: Compound concentration 1000.0 nM
[19] = target: Ephrin type-A receptor 1 (Homo sapiens) (UniProt P21709); details: Compound concentration 1000.0 nM
[20] = target: Serine/threonine-protein kinase 17A (Homo sapiens) (UniProt Q9UEE5); details: Compound concentration 1000.0 nM
Serine/threonine-protein kinase 17A (Homo sapiens), sequence (Q9UEE5 whole entry): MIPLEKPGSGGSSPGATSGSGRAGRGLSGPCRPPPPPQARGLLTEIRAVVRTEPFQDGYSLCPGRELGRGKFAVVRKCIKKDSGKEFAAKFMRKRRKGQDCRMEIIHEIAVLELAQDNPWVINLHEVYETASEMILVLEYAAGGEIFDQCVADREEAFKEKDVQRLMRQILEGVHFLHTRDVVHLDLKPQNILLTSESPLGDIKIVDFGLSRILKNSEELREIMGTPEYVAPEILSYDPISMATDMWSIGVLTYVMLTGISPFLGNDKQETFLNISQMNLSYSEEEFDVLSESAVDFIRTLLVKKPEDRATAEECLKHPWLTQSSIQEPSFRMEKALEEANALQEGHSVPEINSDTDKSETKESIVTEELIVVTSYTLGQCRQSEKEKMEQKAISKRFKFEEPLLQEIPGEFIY

[21] = target: Activin receptor type-1-like (Homo sapiens) (UniProt P37023); details: Compound concentration 1000.0 nM
[22] = test system: Tyrosine-protein kinase ABL1 (Homo sapiens), P00519 [F317L]; details: Compound concentration 1000.0 nM
[23] = target: Membrane-associated tyrosine- and threonine-specific cdc2-inhibitory kinase (Homo sapiens) (UniProt Q99640); details: Compound concentration 1000.0 nM
[24] = test system: Tyrosine-protein kinase ABL1 (Homo sapiens), P00519 [H396P]; details: Compound concentration 1000.0 nM
[25] = target: Serine/threonine-protein kinase 38 (Homo sapiens) (UniProt Q15208); details: Compound concentration 1000.0 nM
[26] = target: T1, 5-hydroxytryptamine receptor 1A (Homo sapiens) (UniProt P08908); details: Compound concentration 10.0 uM
T1 sequence (whole entry): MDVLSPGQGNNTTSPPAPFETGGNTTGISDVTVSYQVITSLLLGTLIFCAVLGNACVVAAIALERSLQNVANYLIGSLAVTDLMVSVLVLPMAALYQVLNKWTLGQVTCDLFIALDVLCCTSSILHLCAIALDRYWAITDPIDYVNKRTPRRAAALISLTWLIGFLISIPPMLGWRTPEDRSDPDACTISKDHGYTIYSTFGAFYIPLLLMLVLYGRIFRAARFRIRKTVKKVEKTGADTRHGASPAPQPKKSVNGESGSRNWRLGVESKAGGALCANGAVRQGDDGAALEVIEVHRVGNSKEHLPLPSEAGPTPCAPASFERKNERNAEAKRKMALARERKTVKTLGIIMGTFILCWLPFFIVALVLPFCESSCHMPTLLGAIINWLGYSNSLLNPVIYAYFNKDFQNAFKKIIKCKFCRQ

[27] = target: D(1B) dopamine receptor (Homo sapiens) (UniProt P21918); details: Compound concentration 10.0 uM
[28] = target: Receptor-type tyrosine-protein kinase FLT3 (Homo sapiens) (UniProt P36888); details: Compound concentration 1000.0 nM
[29] = target: Activated CDC42 kinase 1 (Homo sapiens) (UniProt Q07912); details: Compound concentration 1000.0 nM
[30] = target: Cyclin-dependent kinase 15 (Homo sapiens) (UniProt Q96Q40); details: Compound concentration 1000.0 nM
[31] = target: Serine/threonine-protein kinase Sgk1 (Homo sapiens) (UniProt O00141); details: Compound concentration 1000.0 nM
Serine/threonine-protein kinase Sgk1 (Homo sapiens), sequence (O00141 whole entry, the tested form may be a part): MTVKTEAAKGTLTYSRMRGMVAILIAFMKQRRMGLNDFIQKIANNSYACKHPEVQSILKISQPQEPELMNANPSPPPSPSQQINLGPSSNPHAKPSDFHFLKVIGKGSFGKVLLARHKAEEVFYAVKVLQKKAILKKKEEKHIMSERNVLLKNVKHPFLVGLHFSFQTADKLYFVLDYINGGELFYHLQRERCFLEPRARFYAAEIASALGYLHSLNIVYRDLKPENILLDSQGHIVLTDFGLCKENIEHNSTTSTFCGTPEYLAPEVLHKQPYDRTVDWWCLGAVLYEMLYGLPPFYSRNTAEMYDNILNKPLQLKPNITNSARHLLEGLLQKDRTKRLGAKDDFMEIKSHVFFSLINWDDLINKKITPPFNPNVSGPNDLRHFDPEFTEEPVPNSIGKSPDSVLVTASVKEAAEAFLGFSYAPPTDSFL

[32] = target: Ankyrin repeat and protein kinase domain-containing protein 1 (Homo sapiens) (UniProt Q8NFD2); details: Compound concentration 1000.0 nM
[33] = test system: Epidermal growth factor receptor (Homo sapiens), P00533 [UNDEFINED MUTATION]; details: Compound concentration 1000.0 nM
[34] = target: RAC-alpha serine/threonine-protein kinase (Homo sapiens) (UniProt P31749); details: Compound concentration 1000.0 nM
[35] = target: Interferon-induced, double-stranded RNA-activated protein kinase (Homo sapiens) (UniProt P19525); details: Compound concentration 1000.0 nM
[36] = target: Serine/threonine-protein kinase BRSK1 (Homo sapiens) (UniProt Q8TDC3); details: Compound concentration 1000.0 nM
Serine/threonine-protein kinase BRSK1 (Homo sapiens), sequence (Q8TDC3 whole entry): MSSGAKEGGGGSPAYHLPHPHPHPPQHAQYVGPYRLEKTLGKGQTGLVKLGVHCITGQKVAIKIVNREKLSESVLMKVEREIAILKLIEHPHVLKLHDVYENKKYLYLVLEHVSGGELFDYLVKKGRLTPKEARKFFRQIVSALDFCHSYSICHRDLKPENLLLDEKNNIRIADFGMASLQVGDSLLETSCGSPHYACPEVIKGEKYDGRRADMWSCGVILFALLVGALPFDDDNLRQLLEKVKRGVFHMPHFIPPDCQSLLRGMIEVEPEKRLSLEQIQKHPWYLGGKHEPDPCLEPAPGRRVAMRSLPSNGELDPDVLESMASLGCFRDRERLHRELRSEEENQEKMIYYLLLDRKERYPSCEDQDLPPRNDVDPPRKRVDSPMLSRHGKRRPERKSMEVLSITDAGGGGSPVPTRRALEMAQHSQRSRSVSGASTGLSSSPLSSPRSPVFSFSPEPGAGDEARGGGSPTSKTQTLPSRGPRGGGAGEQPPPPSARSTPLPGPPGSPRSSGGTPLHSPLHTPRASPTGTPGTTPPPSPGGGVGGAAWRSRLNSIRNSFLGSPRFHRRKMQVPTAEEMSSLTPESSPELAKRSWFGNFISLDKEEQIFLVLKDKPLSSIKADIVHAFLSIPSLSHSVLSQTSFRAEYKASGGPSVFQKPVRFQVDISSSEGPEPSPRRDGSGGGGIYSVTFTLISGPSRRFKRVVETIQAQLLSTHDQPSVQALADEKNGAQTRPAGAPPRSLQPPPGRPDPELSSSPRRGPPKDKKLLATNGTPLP

[37] = test system: Mast/stem cell growth factor receptor Kit (Homo sapiens), P10721 [V559D]; details: Compound concentration 1000.0 nM
[38] = target: Casein kinase I isoform gamma-1 (Homo sapiens) (UniProt Q9HCP0); details: Compound concentration 1000.0 nM
[39] = target: Cyclin-dependent kinase 8 (Homo sapiens) (UniProt P49336); details: Compound concentration 1000.0 nM

Activin receptor type-1 (Homo sapiens), sequence (Q04771 whole entry): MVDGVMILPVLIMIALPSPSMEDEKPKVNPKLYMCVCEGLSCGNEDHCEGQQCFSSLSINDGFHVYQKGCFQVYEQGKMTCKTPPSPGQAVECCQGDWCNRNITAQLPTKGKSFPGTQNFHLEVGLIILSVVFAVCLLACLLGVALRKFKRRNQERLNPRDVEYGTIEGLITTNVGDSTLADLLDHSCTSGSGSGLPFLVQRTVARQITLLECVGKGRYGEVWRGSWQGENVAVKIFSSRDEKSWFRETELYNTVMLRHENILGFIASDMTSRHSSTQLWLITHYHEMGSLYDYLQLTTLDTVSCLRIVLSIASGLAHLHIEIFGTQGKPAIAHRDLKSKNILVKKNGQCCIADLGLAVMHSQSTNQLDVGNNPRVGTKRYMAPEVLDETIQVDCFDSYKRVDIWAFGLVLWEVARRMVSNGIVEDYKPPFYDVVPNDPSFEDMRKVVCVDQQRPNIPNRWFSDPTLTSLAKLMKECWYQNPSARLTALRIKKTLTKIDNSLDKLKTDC

Compound | residual activity [1] [%] | residual activity [2] [%] | residual activity [3] [%] | residual activity [4] [%] | inhibition [5] [%] | residual activity [6] [%] | residual activity [7] [%] | residual activity [8] [%] | residual activity [9] [%] | residual activity [10] [%] | residual activity [11] [%] | inhibition [12] [%] | residual activity [13] [%] | residual activity [14] [%] | residual activity [15] [%] | residual activity [16] [%] | residual activity [17] [%] | residual activity [18] [%] | residual activity [19] [%] | residual activity [20] [%] | further results
O=C(NC[C@@H]1[C@H]2CN(C(=O)OCc3cc(C(F)(F)F)cc(C(F)(F)F)c3)C[C@@H]12)c1ccc2[nH]nnc2c1 [BI 2545] | 100 | 86 | 100 | 100 | 51.2 | 100 | 100 | 100 | 91 | 85 | 94 | 31.5 | 100 | 96 | 83 | 100 | 100 | 100 | 100 | 95 | residual activity [21]: 100%; residual activity [22]: 88%; residual activity [23]: 100%; residual activity [24]: 84%; residual activity [25]: 75%; inhibition [26]: 0.91%; inhibition [27]: 21.6%; residual activity [28]: 93%; residual activity [29]: 100%; residual activity [30]: 75%; residual activity [31]: 100%; residual activity [32]: 73%; residual activity [33]: 100%; residual activity [34]: 100%; residual activity [35]: 45%; residual activity [36]: 89%; residual activity [37]: 88%; residual activity [38]: 97%; residual activity [39]: 100%
Cc1nccc(COC(=O)N2C[C@@H]3[C@@H](CNC(=O)c4ccc5[nH]nnc5c4)[C@@H]3C2)n1 [BI 3017] | 91 | 97 | 95 | 89 | 3.21 | 100 | 100 | 100 | 100 | 92 | 100 | -6.02 | 0 | 89 | 100 | 78 | 84 | 79 | 100 | 79 | residual activity [21]: 100%; residual activity [22]: 90%; residual activity [23]: 100%; residual activity [24]: 93%; residual activity [25]: 100%; inhibition [26]: -7.66%; inhibition [27]: 16.4%; residual activity [28]: 89%; residual activity [29]: 100%; residual activity [30]: 100%; residual activity [31]: 100%; residual activity [32]: 100%; residual activity [33]: 100%; residual activity [34]: 100%; residual activity [35]: 100%; residual activity [36]: 100%; residual activity [37]: 86%; residual activity [38]: 100%; residual activity [39]: 75%
